Our source for the IC50 values is ChEMBL document CHEMBL5241080, “Quinoline anticancer agents active on DNA and DNA-interacting proteins: From classical to emerging therapeutic targets” (Eur J Med Chem, 2021).

Structures are written as SMILES.

The IC50 is the concentration that gives 50% inhibition.

For one test, the system named is A549. As to the kind of experiment: Antiproliferative activity against human A549 cells. It is filed as functional, cell-based.
Test [1] has as its target Histone-lysine N-methyltransferase SMYD3 (Homo sapiens, UniProt Q9H7B4). Kind of test: Inhibition of SMYD3 (unknown origin).
The next test deals with HPAC. Kind of test: Antiproliferative activity against human HPAC cells. It is filed as functional, cell-based.
For a further test, the system named is CFPAC-1. As to the kind of experiment: Antiproliferative activity against human CFPAC-1 cells. The format is functional, cell-based.
Test [2] relates to HCT-116. Kind of test: Antiproliferative activity against human HCT-116 cells. It is filed as functional, cell-based.
The next test relates to HepG2. As to the kind of experiment: Antiproliferative activity against human HepG2 cells. It is filed as functional, cell-based.
Test [3] deals with T1, DNA (cytosine-5)-methyltransferase 3A (Homo sapiens, UniProt Q9Y6K1). Kind of test: Inhibition of C-terminal biotin-labelled human DNMT3A by multilabel plate reader analysis.
The subject of the next test is HeLa. As to the kind of experiment: Antiproliferative activity against human HeLa cells assessed as reduction cell viability incubated for 48 hrs by MTT assay. It is filed as functional, cell-based. On the technique in general: Formazan colour is commonly taken as a measure of viable cells.
Test [4] concerns the target T1, DNA (cytosine-5)-methyltransferase 3A. Kind of test: Inhibition of DNMT3A (unknown origin).
The test system of a further test is NCI-H1299. Kind of test: Antiproliferative activity against human NCI-H1299 cells assessed as reduction cell viability incubated for 48 hrs by MTT assay. The format is functional, cell-based. The conditions noted are these: NCI-H1299, 48 h.
Test [5] concerns the target DNA (cytosine-5)-methyltransferase 1 (Homo sapiens, UniProt P26358). Kind of test: Inhibition of his-tagged human DNMT1 by scintillation counter analysis.
Another test concerns MCF7. Kind of test: Antiproliferative activity against human MCF7 cells assessed as reduction cell viability incubated for 48 hrs by MTT assay. The format is functional, cell-based. To be noted: MCF7, 48 h.
Another test concerns HL-60. As to the kind of experiment: Antiproliferative activity against human HL-60 cells assessed as reduction cell viability incubated for 48 hrs by MTT assay. The format is functional, cell-based. The conditions noted are these: HL-60, 48 h.
The next test deals with HT-1080. As to the kind of experiment: Antiproliferative activity against human HT-1080 cells assessed as reduction cell viability incubated for 48 hrs by MTT assay. The format is functional, cell-based. To be noted: HT-1080, 48 h.
Another test concerns KG-1. Kind of test: Antiproliferative activity against human KG-1 cells. The format is functional, cell-based.
Test [6] relates to HCT-116. Kind of test: Antiproliferative activity against human HCT-116 cells assessed as reduction cell viability incubated for 48 hrs by MTT assay. It is filed as functional, cell-based. To be noted: HCT-116, 48 h.
A further test deals with M14. As to the kind of experiment: Antiproliferative activity against human M14 cells assessed as reduction cell viability incubated for 48 hrs by MTT assay. It is filed as functional, cell-based. The conditions noted are these: M14, 48 h.

T1 sequence (Q9Y6K1 whole entry, looked up): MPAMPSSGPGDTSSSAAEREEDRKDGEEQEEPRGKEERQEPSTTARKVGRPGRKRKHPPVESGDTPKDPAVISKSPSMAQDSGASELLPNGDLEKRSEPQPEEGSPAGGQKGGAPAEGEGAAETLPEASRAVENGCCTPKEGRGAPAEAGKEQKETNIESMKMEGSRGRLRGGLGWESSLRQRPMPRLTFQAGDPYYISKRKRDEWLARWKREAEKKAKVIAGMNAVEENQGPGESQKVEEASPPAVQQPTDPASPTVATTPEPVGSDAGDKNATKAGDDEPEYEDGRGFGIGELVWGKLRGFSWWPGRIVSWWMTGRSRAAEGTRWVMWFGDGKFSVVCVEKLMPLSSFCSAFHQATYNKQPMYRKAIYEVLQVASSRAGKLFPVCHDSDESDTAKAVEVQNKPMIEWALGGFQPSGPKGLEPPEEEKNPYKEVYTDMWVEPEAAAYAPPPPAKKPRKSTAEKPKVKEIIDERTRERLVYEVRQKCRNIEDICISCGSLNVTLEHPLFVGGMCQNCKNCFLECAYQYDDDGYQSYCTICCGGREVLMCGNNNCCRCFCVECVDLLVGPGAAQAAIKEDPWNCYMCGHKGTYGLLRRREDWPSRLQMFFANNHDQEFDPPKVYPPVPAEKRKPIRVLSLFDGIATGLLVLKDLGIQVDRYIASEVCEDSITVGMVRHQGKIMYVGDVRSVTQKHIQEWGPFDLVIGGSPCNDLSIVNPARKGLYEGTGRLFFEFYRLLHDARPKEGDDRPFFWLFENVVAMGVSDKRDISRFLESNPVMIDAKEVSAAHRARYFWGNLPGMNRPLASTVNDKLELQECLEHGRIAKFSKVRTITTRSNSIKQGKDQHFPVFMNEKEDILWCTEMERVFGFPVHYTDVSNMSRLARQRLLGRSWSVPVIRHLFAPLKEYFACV
DNA (cytosine-5)-methyltransferase 1, sequence (P26358 whole entry): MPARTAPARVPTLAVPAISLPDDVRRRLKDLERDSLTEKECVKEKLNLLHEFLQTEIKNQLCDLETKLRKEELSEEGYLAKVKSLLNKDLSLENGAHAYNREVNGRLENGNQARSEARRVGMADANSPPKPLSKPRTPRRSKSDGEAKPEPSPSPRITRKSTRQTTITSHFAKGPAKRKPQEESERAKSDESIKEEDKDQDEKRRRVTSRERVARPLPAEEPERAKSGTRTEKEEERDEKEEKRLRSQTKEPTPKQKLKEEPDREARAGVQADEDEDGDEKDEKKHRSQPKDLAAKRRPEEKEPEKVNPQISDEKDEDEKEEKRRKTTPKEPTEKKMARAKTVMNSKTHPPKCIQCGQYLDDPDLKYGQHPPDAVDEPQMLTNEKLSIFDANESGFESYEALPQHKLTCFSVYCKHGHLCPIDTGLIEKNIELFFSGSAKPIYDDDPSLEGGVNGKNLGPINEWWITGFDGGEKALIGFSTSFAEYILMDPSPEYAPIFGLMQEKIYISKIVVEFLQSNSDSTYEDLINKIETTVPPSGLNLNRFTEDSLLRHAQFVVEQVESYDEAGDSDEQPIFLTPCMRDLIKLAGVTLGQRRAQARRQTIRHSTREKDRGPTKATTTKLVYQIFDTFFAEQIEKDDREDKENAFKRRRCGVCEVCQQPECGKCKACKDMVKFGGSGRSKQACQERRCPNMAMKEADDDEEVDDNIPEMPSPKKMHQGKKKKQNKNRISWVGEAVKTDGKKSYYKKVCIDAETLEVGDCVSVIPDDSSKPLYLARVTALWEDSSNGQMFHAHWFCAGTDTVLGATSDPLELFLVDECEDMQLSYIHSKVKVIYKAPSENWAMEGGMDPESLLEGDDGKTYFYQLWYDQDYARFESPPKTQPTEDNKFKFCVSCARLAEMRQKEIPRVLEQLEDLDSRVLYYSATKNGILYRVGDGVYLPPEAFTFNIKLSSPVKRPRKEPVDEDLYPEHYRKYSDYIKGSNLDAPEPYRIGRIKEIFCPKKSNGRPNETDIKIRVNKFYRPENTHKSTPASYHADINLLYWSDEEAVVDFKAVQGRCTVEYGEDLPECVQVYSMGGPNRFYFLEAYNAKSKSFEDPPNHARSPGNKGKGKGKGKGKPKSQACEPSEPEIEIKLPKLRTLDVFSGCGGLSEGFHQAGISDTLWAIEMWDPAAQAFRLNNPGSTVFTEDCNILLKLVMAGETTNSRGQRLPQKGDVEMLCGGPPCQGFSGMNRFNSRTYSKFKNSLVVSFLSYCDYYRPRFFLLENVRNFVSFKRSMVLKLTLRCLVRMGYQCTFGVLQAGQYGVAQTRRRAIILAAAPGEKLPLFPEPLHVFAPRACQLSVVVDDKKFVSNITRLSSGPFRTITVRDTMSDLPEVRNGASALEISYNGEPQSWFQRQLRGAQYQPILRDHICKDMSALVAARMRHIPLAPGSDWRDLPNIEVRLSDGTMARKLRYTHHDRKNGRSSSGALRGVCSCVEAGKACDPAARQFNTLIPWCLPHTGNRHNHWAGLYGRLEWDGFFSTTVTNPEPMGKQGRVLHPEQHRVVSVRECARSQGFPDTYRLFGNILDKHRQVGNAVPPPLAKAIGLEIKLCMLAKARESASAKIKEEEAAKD
Histone-lysine N-methyltransferase SMYD3, sequence (Q9H7B4 whole entry): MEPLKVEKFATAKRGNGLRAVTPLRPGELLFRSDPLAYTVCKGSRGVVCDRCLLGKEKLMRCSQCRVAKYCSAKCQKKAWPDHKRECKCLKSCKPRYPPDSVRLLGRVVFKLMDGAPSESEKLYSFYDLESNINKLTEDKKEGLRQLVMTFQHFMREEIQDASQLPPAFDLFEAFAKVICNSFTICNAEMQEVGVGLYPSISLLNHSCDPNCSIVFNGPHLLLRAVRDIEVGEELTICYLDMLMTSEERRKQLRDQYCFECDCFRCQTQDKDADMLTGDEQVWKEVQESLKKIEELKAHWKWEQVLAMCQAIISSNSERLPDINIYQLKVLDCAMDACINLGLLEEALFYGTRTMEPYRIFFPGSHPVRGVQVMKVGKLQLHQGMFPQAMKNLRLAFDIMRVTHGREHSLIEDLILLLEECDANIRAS

Turning to `CCCOC(=O)N1CCN(C(=O)c2ccc3c(Cl)c4c(nc3c2)CCC(CCN)C4)CC1` (configuration not stated), the IC50 in the test with A549 is 11 µM; in test [1], 0.04 µM; in the test with HPAC, 11 µM; in the test on CFPAC-1 it was 11 µM; in the test with HCT-116 [2], 11 µM; in the test on HepG2 it was 11 µM.
As to `O=C(Nc1ccc(Nc2ccnc3ccccc23)cc1)c1ccc(Nc2ccncc2)cc1`, the IC50 in test [3] was determined as 6 µM; in the test with HeLa it was 0.14 µM; in [4], 0.9 µM; with NCI-H1299 it was 14.7 µM; in test [5], 23 µM; in the test with MCF7, 4.1 µM. Further, the IC50 is 0.2 µM with HL-60; 0.5 µM in the test on HT-1080; 0.96 µM with KG-1; 1 µM in the test on HCT-116 [6]; 0.5 µM in the test on M14.
